{"source": "ChEMBL document CHEMBL3046912", "about": "“Effectiveness of 1,3-dichloropropene as an alternative to methyl bromide in rotations of tomato (Solanum lycopersicum) and cucumber (Cucumis sativus) in China” (2012)", "format_in_all_cases": "functional", "key": {"Solanum lycopersicum [1]": {"system": "Solanum lycopersicum", "assay": "Increase in plant height of Solanum lycopersicum (tomato) exposed to 120 L/ha compound fumigation treatment measured 30 days after compound treatment (reference value: 28.4 cm)"}, "Solanum lycopersicum [2]": {"system": "Solanum lycopersicum", "assay": "Increase in plant height of Solanum lycopersicum (tomato) exposed to 180 L/ha compound fumigation treatment measured 30 days after compound treatment (reference value: 28.4 cm)"}, "Cucumis sativus [3]": {"system": "Cucumis sativus", "assay": "Increase in plant height of Cucumis sativus (cucumber) exposed to 180 L/ha compound fumigation treatment measured 30 days after compound treatment (reference value: 85.6 cm)"}, "Cucumis sativus [4]": {"system": "Cucumis sativus", "assay": "Increase in plant height of Cucumis sativus (cucumber) exposed to 90 L/ha compound fumigation treatment measured 30 days after compound treatment (reference value: 85.6 cm)"}, "Cucumis sativus [5]": {"system": "Cucumis sativus", "assay": "Increase in plant height of Cucumis sativus (cucumber) exposed to 180 L/ha compound fumigation treatment measured 50 days after compound treatment (reference value: 103.2 cm)"}, "Cucumis sativus [6]": {"system": "Cucumis sativus", "assay": "Increase in plant height of Cucumis sativus (cucumber) exposed to 90 L/ha compound fumigation treatment measured 50 days after compound treatment (reference value: 103.2 cm)"}, "Digitaria sanguinalis [7]": {"system": "Digitaria sanguinalis", "assay": "Herbicidal activity against Digitaria sanguinalis (hairy crabgrass) in cucumber plants fields exposed to 90 L/ha compound fumigation treatment assessed as hand weeding time per plot (reference value: 258.3 hr/ha)"}, "Capsella bursa-pastoris [8]": {"system": "Capsella bursa-pastoris", "assay": "Herbicidal activity against Capsella bursa-pastoris in cucumber plants fields exposed to 90 L/ha compound fumigation treatment assessed as hand weeding time per plot (reference value: 258.3 hr/ha)"}, "Capsella bursa-pastoris [9]": {"system": "Capsella bursa-pastoris", "assay": "Herbicidal activity against Capsella bursa-pastoris in cucumber plants fields exposed to 120 L/ha compound fumigation treatment assessed as hand weeding time per plot (reference value: 258.3 hr/ha)"}, "Digitaria sanguinalis [10]": {"system": "Digitaria sanguinalis", "assay": "Herbicidal activity against Digitaria sanguinalis (hairy crabgrass) in cucumber plants fields exposed to 180 L/ha compound fumigation treatment assessed as hand weeding time per plot (reference value: 258.3 hr/ha)"}, "Capsella bursa-pastoris [11]": {"system": "Capsella bursa-pastoris", "assay": "Herbicidal activity against Capsella bursa-pastoris in cucumber plants fields exposed to 180 L/ha compound fumigation treatment assessed as hand weeding time per plot (reference value: 258.3 hr/ha)"}, "Meloidogyne incognita [12]": {"system": "Meloidogyne incognita", "assay": "Nematicidal activity against Meloidogyne incognita (root-knot nematode) in cucumber growing fields exposed to 120 L/ha compound fumigation treatment assessed as root galling index measured 20 days after compound treatment (reference value: 8.72 root galling index)"}, "Solanum lycopersicum [13]": {"system": "Solanum lycopersicum", "assay": "Increase in crop yield in Cucumis sativus (cucumber) plants exposed to 90 L/ha compound fumigation treatment assessed as marketable yield fruit yield (reference value: 65.3 ton/ha)"}, "Arenaria serpyllifolia [14]": {"system": "Arenaria serpyllifolia", "assay": "Herbicidal activity against Arenaria serpyllifolia in tomato plants fields exposed to 90 L/ha compound fumigation treatment assessed as hand weeding time per plot (reference value: 243.3 hr/ha)"}, "Digitaria sanguinalis [15]": {"system": "Digitaria sanguinalis", "assay": "Herbicidal activity against Digitaria sanguinalis (hairy crabgrass) in tomato plants fields exposed to 90 L/ha compound fumigation treatment assessed as hand weeding time per plot (reference value: 243.3 hr/ha)"}, "Digitaria sanguinalis [16]": {"system": "Digitaria sanguinalis", "assay": "Herbicidal activity against Digitaria sanguinalis (hairy crabgrass) in tomato plants fields exposed to 120 L/ha compound fumigation treatment assessed as hand weeding time per plot (reference value: 243.3 hr/ha)"}, "Digitaria sanguinalis [17]": {"system": "Digitaria sanguinalis", "assay": "Herbicidal activity against Digitaria sanguinalis (hairy crabgrass) in tomato plants fields exposed to 180 L/ha compound fumigation treatment assessed as hand weeding time per plot (reference value: 243.3 hr/ha)"}, "Capsella bursa-pastoris [18]": {"system": "Capsella bursa-pastoris", "assay": "Herbicidal activity against Capsella bursa-pastoris in tomato plants fields exposed to 180 L/ha compound fumigation treatment assessed as hand weeding time per plot (reference value: 243.3 hr/ha)"}, "Meloidogyne incognita [19]": {"system": "Meloidogyne incognita", "assay": "Nematicidal activity against Meloidogyne incognita (root-knot nematode) in tomato growing fields exposed to 120 L/ha compound fumigation treatment assessed as root galling index measured 20 days after compound treatment (reference value: 8.51 root galling index)"}, "Solanum lycopersicum [20]": {"system": "Solanum lycopersicum", "assay": "Increase in crop yield in Cucumis sativus (cucumber) plants exposed to 90 L/ha compound fumigation treatment assessed as medium fruit yield (reference value: 38.6 ton/ha)"}, "Capsella bursa-pastoris [21]": {"system": "Capsella bursa-pastoris", "assay": "Herbicidal activity against Capsella bursa-pastoris in tomato plants fields exposed to 90 L/ha compound fumigation treatment assessed as hand weeding time per plot relative to untreated control"}, "Capsella bursa-pastoris [22]": {"system": "Capsella bursa-pastoris", "assay": "Herbicidal activity against Capsella bursa-pastoris in tomato plants fields exposed to 120 L/ha compound fumigation treatment assessed as hand weeding time per plot relative to untreated control"}, "Arenaria serpyllifolia [23]": {"system": "Arenaria serpyllifolia", "assay": "Herbicidal activity against Arenaria serpyllifolia in tomato plants fields exposed to 180 L/ha compound fumigation treatment assessed as hand weeding time per plot relative to untreated control"}, "Solanum lycopersicum [24]": {"system": "Solanum lycopersicum", "assay": "Increase in crop yield in Cucumis sativus (cucumber) plants exposed to 180 L/ha compound fumigation treatment assessed as medium fruit yield (reference value: 38.6 ton/ha)"}, "Solanum lycopersicum [25]": {"system": "Solanum lycopersicum", "assay": "Increase in crop yield in Solanum lycopersicum (tomato) plants exposed to 90 L/ha compound fumigation treatment assessed as medium fruit yield (reference value: 32.3 ton/ha)"}, "Solanum lycopersicum [26]": {"system": "Solanum lycopersicum", "assay": "Increase in crop yield in Solanum lycopersicum (tomato) plants exposed to 180 L/ha compound fumigation treatment assessed as medium fruit yield (reference value: 32.3 ton/ha)"}, "Solanum lycopersicum [27]": {"system": "Solanum lycopersicum", "assay": "Increase in crop yield in Cucumis sativus (cucumber) plants exposed to 180 L/ha compound fumigation treatment assessed as large fruit yield (reference value: 19.5 ton/ha)"}, "Arenaria serpyllifolia [28]": {"system": "Arenaria serpyllifolia", "assay": "Herbicidal activity against Arenaria serpyllifolia in cucumber plants fields exposed to 180 L/ha compound fumigation treatment assessed as hand weeding time per plot relative to untreated control"}, "Digitaria sanguinalis [29]": {"system": "Digitaria sanguinalis", "assay": "Herbicidal activity against Digitaria sanguinalis (hairy crabgrass) in cucumber plants fields exposed to 180 L/ha compound fumigation treatment assessed as hand weeding time per plot relative to untreated control"}, "Solanum lycopersicum [30]": {"system": "Solanum lycopersicum", "assay": "Increase in crop yield in Solanum lycopersicum (tomato) plants exposed to 120 L/ha compound fumigation treatment assessed as large fruit yield (reference value: 15.2 ton/ha)"}, "Solanum lycopersicum [31]": {"system": "Solanum lycopersicum", "assay": "Increase in crop yield in Solanum lycopersicum (tomato) plants exposed to 90 L/ha compound fumigation treatment assessed as large fruit yield (reference value: 15.2 ton/ha)"}, "Solanum lycopersicum [32]": {"system": "Solanum lycopersicum", "assay": "Increase in crop yield in Cucumis sativus (cucumber) plants exposed to 180 L/ha compound fumigation treatment assessed as extra-large fruit yield (reference value: 7.2 ton/ha)"}, "Solanum lycopersicum [33]": {"system": "Solanum lycopersicum", "assay": "Increase in crop yield in Cucumis sativus (cucumber) plants exposed to 120 L/ha compound fumigation treatment assessed as extra-large fruit yield (reference value: 7.2 ton/ha)"}, "Solanum lycopersicum [34]": {"system": "Solanum lycopersicum", "assay": "Increase in crop yield in Solanum lycopersicum (tomato) plants exposed to 120 L/ha compound fumigation treatment assessed as extra-large fruit yield (reference value: 3.8 ton/ha)"}, "Arenaria serpyllifolia [35]": {"system": "Arenaria serpyllifolia", "assay": "Herbicidal activity against Arenaria serpyllifolia in cucumber plants fields exposed to 90 L/ha compound fumigation treatment assessed as hand weeding time per plot relative to untreated control"}, "Capsella bursa-pastoris [36]": {"system": "Capsella bursa-pastoris", "assay": "Herbicidal activity against Capsella bursa-pastoris in cucumber plants fields exposed to 90 L/ha compound fumigation treatment assessed as hand weeding time per plot relative to untreated control"}, "Digitaria sanguinalis [37]": {"system": "Digitaria sanguinalis", "assay": "Herbicidal activity against Digitaria sanguinalis (hairy crabgrass) in cucumber plants fields exposed to 120 L/ha compound fumigation treatment assessed as hand weeding time per plot relative to untreated control"}}}
{"smiles": "Cl/C=C/CCl", "note": "[1,3-DICHLOROPROPENE]", "values": [{"measurement": "Activity", "setting": "Solanum lycopersicum [1]", "result": 37.9, "unit": "cm"}, {"measurement": "Activity", "setting": "Solanum lycopersicum [2]", "result": 45.4, "unit": "cm"}, {"measurement": "Activity", "setting": "Cucumis sativus [3]", "result": 105.6, "unit": "cm"}, {"measurement": "Activity", "setting": "Cucumis sativus [4]", "result": 92.6, "unit": "cm"}, {"measurement": "Activity", "setting": "Cucumis sativus [5]", "result": 130.7, "unit": "cm"}, {"measurement": "Activity", "setting": "Cucumis sativus [6]", "result": 112.3, "unit": "cm"}, {"measurement": "Time", "setting": "Digitaria sanguinalis [7]", "result": 90.5, "unit": "hr/ha"}, {"measurement": "Time", "setting": "Capsella bursa-pastoris [8]", "result": 90.5, "unit": "hr/ha"}, {"measurement": "Time", "setting": "Capsella bursa-pastoris [9]", "result": 74.4, "unit": "hr/ha"}, {"measurement": "Time", "setting": "Digitaria sanguinalis [10]", "result": 62.3, "unit": "hr/ha"}, {"measurement": "Time", "setting": "Capsella bursa-pastoris [11]", "result": 62.3, "unit": "hr/ha"}, {"measurement": "Root_galling_index", "setting": "Meloidogyne incognita [12]", "result": 2.92}, {"measurement": "Crop_yield", "setting": "Solanum lycopersicum [13]", "result": 84, "unit": "tons/ha"}, {"measurement": "Time", "setting": "Arenaria serpyllifolia [14]", "result": 85.6, "unit": "hr/ha"}, {"measurement": "Time", "setting": "Digitaria sanguinalis [15]", "result": 85.6, "unit": "hr/ha"}, {"measurement": "Time", "setting": "Digitaria sanguinalis [16]", "result": 66.4, "unit": "hr/ha"}, {"measurement": "Time", "setting": "Digitaria sanguinalis [17]", "result": 55.6, "unit": "hr/ha"}, {"measurement": "Time", "setting": "Capsella bursa-pastoris [18]", "result": 55.6, "unit": "hr/ha"}, {"measurement": "Root_galling_index", "setting": "Meloidogyne incognita [19]", "result": 2.84}, {"measurement": "Crop_yield", "setting": "Solanum lycopersicum [20]", "result": 47.7, "unit": "tons/ha"}, {"measurement": "Activity", "setting": "Capsella bursa-pastoris [21]", "result": 45, "unit": "%"}, {"measurement": "Activity", "setting": "Capsella bursa-pastoris [22]", "result": 45, "unit": "%"}, {"measurement": "Activity", "setting": "Arenaria serpyllifolia [23]", "result": 45, "unit": "%"}, {"measurement": "Crop_yield", "setting": "Solanum lycopersicum [24]", "result": 52.3, "unit": "tons/ha"}, {"measurement": "Crop_yield", "setting": "Solanum lycopersicum [25]", "result": 38.7, "unit": "tons/ha"}, {"measurement": "Crop_yield", "setting": "Solanum lycopersicum [26]", "result": 45.3, "unit": "tons/ha"}, {"measurement": "Crop_yield", "setting": "Solanum lycopersicum [27]", "result": 31.7, "unit": "tons/ha"}, {"measurement": "Activity", "setting": "Arenaria serpyllifolia [28]", "result": 45, "unit": "%"}, {"measurement": "Activity", "setting": "Digitaria sanguinalis [29]", "result": 45, "unit": "%"}, {"measurement": "Crop_yield", "setting": "Solanum lycopersicum [30]", "result": 19.2, "unit": "tons/ha"}, {"measurement": "Crop_yield", "setting": "Solanum lycopersicum [31]", "result": 18.9, "unit": "tons/ha"}, {"measurement": "Crop_yield", "setting": "Solanum lycopersicum [32]", "result": 14.8, "unit": "tons/ha"}, {"measurement": "Crop_yield", "setting": "Solanum lycopersicum [33]", "result": 12.1, "unit": "tons/ha"}, {"measurement": "Crop_yield", "setting": "Solanum lycopersicum [34]", "result": 6.4, "unit": "tons/ha"}, {"measurement": "Activity", "setting": "Arenaria serpyllifolia [35]", "result": 45, "unit": "%"}, {"measurement": "Activity", "setting": "Capsella bursa-pastoris [36]", "result": 45, "unit": "%"}, {"measurement": "Activity", "setting": "Digitaria sanguinalis [37]", "result": 45, "unit": "%"}]}
